US20060106049A1, “Histone deacetylase inhibitors and methods of use” (The University of chicago, priority 2004, published 2006)
“Also recorded” adds a separate entry of the source.

Key:
HDAC [1] = conditions: formed from FK228 by dithiothreitol reduction in vitro; cited from earlier work
bone marrow blasts = experiment: Phase II study of depsipeptide in relapsed or refractory AML: anti-leukemic response; format: in vivo, human
Source text: (§1) Eighteen patients (median age=60 years, age range=25-77 years) with relapsed or refractory AML were enrolled in a multicenter Phase II study of depsipeptide for the treatment of AML. Patients were divided into two groups upon entry into the study: Group A (n=14), which included patients without specific chromosomal abnormalities correlated with recruitment of histone deacetylases; and Group B (n=4), which included patients with chromosomal aberrations associated with recruitment of histone deacetylases, such as t(8;21), inv 16, or t(15; 17).
(§2) FK228 (Fujisawa, Osaka, Japan) was administered intravenously over four hours at a dose of 13.3 mg/m^2/d on days 1, 8, and 15 of a 28-day cycle. Peripheral blood mononuclear cells were obtained prior to (hour 0) and 4 hours (hour 4) and 24 hours (hour 24) after dosing on days 1 and 8 and used to evaluate histone acetylation by flow cytometry and gene re-expression by REAL-time RT-PCR. Target genes of interest include MDR1, a target of HDI-mediated upregulation, and p15^INK4B (P15), a target of DNA hypermethylation in AML.

H3 acetylation = experiment: Histone acetylation by flow cytometry in peripheral blood mononuclear cells; format: in vivo, human
Method: as §2

MDR1 = experiment: Gene re-expression by REAL-time RT-PCR in peripheral blood mononuclear cells (MDR1); format: in vivo, human; conditions: hr 4 on days 1 and 8; normalized to ABL; p=0.04
Method: as §2
(§3) MDR1 and p15 copy numbers were expressed as a normalized quotient of MDR1 and p15, respectively, to the housekeeping gene ABL.

p15INK4B (P15) = experiment: Gene re-expression by REAL-time RT-PCR in peripheral blood mononuclear cells (p15); format: in vivo, human; conditions: normalized to ABL; p-0.01
Method: as §2, §3

[2] = Tolerability in Phase II AML study; format: in vivo, human; conditions: AML patients, 13.3 mg/m2/d iv days 1, 8, 15 of 28-day cycle
Source text: as §1, §2

HDAC [3] = conditions: cited from earlier work

| SMILES | HDAC inhibition (HDAC [1]) | response of patient having a t(4;21) translocation (bone marrow blasts; 13.3 mg/m2/d iv days 1, 8, 15 of 28-day cycle) | objective evidence of response (complete or partial remission) or other anti-leukemic activity (bone marrow blasts; Group A (n=14), patients without chromosomal abnormalities correlated with HDAC recruitment, 13.3 mg/m2/d iv over 4 h, days 1, 8, 15 of 28-day cycle) | patients exhibiting marked reduction of bone marrow blasts (bone marrow blasts; Group B (n=4), chromosomal aberrations associated with HDAC recruitment, after one cycle, 13.3 mg/m2/d iv) | time to increase in bone marrow blasts following cessation of therapy (bone marrow blasts; both responding Group B patients, antileukemic effect short-lived) | hematopoiesis in responding patients (bone marrow blasts; responders of Group B, following the second cycle of treatment, 13.3 mg/m2/d iv) | bone marrow blast percentage in responding patients (bone marrow blasts; responders with AML1 translocations (t(8;21), t(4;21)), normocellular marrow after one cycle, 13.3 mg/m2/d iv) | patients exhibiting increase H3 acetylation (H3 acetylation; 4 of 14 patients) | patients exhibiting an increase in H3 acetylation (H3 acetylation; Group B cohort (3 of 4), at 4 and/or 24 hours after dosing) | overall mean increase in MDR1 expression (MDR1) | mean increase in p15 expression (p15INK4B (P15)) | most common adverse effects [2] | tolerability [2] | HDAC inhibition in vivo (HDAC [3]) |
| --- | --- | --- | --- | --- | --- | --- | --- | --- | --- | --- | --- | --- | --- | --- |
| C/C=C1\NC(=O)[C@@H](CS)NC(=O)[C@@H](C(C)C)NC(=O)C[C@@H](/C=C/CCS)OC(=O)[C@H](C(C)C)NC1=O [FR135313] | capable of inhibiting HDAC |  |  |  |  |  |  |  |  |  |  |  |  |  |
| C/C=C1\NC(=O)[C@H]2CSSCC/C=C/[C@H](CC(=O)N[C@H](C(C)C)C(=O)N2)OC(=O)[C@H](C(C)C)NC1=O [FK228] |  | responded to the treatment | No objective evidence of response | 50% | ≤ 30 days | return to substantially normal hematopoiesis; also recorded: recovery of near-normal hematopoiesis | < 5% | 28% | 75% | 41% | 91% | grade ½ nausea, vomiting, and fatigue | well tolerated | strongly inhibits HDAC |
